Source: patent US7488738B2, “Aminophenoxyacetic acid derivatives and pharmaceutical composition containing thereof” (Asubio Pharma Co., Ltd., priority 1998, dated 2009)

What was measured:
cells of cerebral cortex = assay: Cytoprotective effect against glutamate induced cell death (MTT); format: cell-based, rats of Wister strain; conditions: compound 1 μM added 24 h before 1 mM glutamate, fetal rat cerebral cortex cells, control group = 100%; for viability at 1 µM: read-out: Survival Rate (%) (Compound: 1 μM)
Description: Biological Test 1: Cytoprotective Effect Against Glutamate Induced Cell Death
In accordance with the method of M. P. Mattoson [M. P. Mattoson, Brain Res. Rev., 13, 179 (1988)], brain of 18-days fetus rats of Wister strain were taken out. Then, cells of cerebral cortex (4×10^5 cells/ml) were seeded on poly-L-lysine coated 96 wells flat bottom plate (Sumitomo Bakelite Co., Ltd.) in concentration of 4×10^4 cells/each well. After 48 hours of incubation, 1 μM of test compounds were added, then after further 24 hours, 1 mM of glutamate were further added for inducing the cell injury. 12 hours after adding glutamate, MTT [3-(4,5-dimethylthiazol)-2,5-diphenyltetrazolium bromide] was added and incubated for 6 hours.
After incubation, 200 μl of dimethy sulfoxide was added to each wells, and the amounts of reduced MTT were calorimetrically analyzed by Micro ELISA Reader using 570 nm of main-wavelength and 650 nm of sub-wavelength.
The effect of the test compounds was determined as the survival rate of living cells (%) according to the following equation: Survival rate of living cells (%)=[(test compound group−glutamate treated group)÷(control group−glutamate treated group)]×100
That is, the survival rate of living cells after incubation of the control group was converted to 100%, and the survival data of living cells of the tested compounds was shown in Table II.

[1] = tested on: rats of slc:Wister strain; assay: Cerebral edema suppressing effect (brain injury by metal screw); format: in vivo; conditions: rat, water content of injured hemisphere 6 days after operation
Description: Biological Test 3: Cerebral Edema Suppressing Effect 8-week-old rats of slc:Wister strain were used. Rats were anesthetized by intraperitoneal administration of 50 mg/kg of Nembutal (Trade Name), and then, fixed on brain fixactor. The sterile metal screw (3.75 mm in length/1.0 mm in diameter/0.75 mm in length of screw thread) was plugged in the 1.5 mm right and 0.8 mm rear side of the bregma to press frontparietal cortex organ to cause brain injury. 6 days after the operation, the whole brain was taken out and right cerebral hemisphere (injured side) was isolated. After measurement of the wet weight of the cerebral hemisphere, it was dried at 110° C. for 24 hours on aluminum foil. The dry weight of the cerebral hemisphere was measured, and the water content was calculated by using the following formula: Water content (%)=[(wet weight of hemisphere−dry weight of hemisphere)/wet weight of hemisphere]×100 The test compounds were intravenously administered just after the operation via tail vein of the rats.

calbindin D28Kd = assay: Calbindin D28Kd inducing effect (western blot); format: cell-based, rats of Wister strain; conditions: fetal rat cerebral cortex cells, none-treated control = 100
Description: Biological Test 2: Calbindin D28Kd Inducing Effect
In accordance with the method of M. P. Mattoson [M. P. Mattoson, Brain Res. Rev., 13, 179 (1988)], brain of 18-days fetus rats of Wister strain were taken out. Then, cells of cerebral cortex (5,500 cells/m^2) were seeded on poly-L-lysine coated 6 wells plate (Falcon) (3.5 mm, Sumilon) and incubated for 7 days.
Test compounds were added on culture day 5, and after 7 days of incubation, the protein was extracted with homogenized buffer-solution [containing 20 mM of Tris-HCl (pH=7.4), 1 mM of EDTA, and 0.1 mM of phenylmethylsulfonyl fluoride].
The effect of the test compounds was determined by the western blot technique using polyclonal anti calbindine D28K (Swant Co., Ltd.) as antibody.
In the table, the amount of induced calbindine D28Kd of the control group (none-treated group) was indicated as 100 percents.

[2] = 3 mg/kg intravenously just after operation
[3] = 1 mg/kg intravenously just after operation

| Structure (SMILES) | Survival Rate (%) (Compound: 1 μM) (cells of cerebral cortex) | Cerebral edema suppressing rate (%) [1, 2] [%] | viability at 1 µM (cells of cerebral cortex) [%] | other results |
| --- | --- | --- | --- | --- |
| Cc1cc(OCC(=O)N(C)C2CCN(CC(=O)N(C)c3ccccc3)CC2)c(C)c(C)c1N [Compound 105, 2-(4-Amino-2,3,5-trimethylphenoxy)-N-methyl-N-[1-(2-(N-methylanilino)-2-oxyethyl)-4-piperidinyl]acetamide] | 86 | 23.2 | – | – |
| Cc1cc(OCC(=O)NC2CCN(CC(=O)N(C)c3ccccc3)CC2)c(C)c(C)c1N [Compound 108] | – | 20.3 | – | – |
| Cc1c(C)c(NCC(=O)N(C)C2CCN(CCN3CCOCC3)CC2)c(C)c(C)c1N [Compound 119, 2-(4-Amino-2,3,5,6-tetramethylanilino)-N-methyl-N-{1-[2-(4-morpholinyl)ethyl]-4-piperidinyl}acetamide] | – | – | 115 | Cerebral edema suppressing rate (%) [1, 3]: 21.6% |
| Cc1c(C)c(NCC(=O)N(C)C2CCN(CC(=O)c3ccccc3)CC2)c(C)c(C)c1N [Compound 111, 2-(4-Amino-2,3,5,6-tetramethylanilino)-N-methyl-[1-(2-phenyl-2-oxyethyl)-4-piperidinyl]acetamide] | 84 | 25.0 | – | Amount of induced Calbindine D28Kd (% vs. control) (Compound: 1 μM) (calbindin D28Kd): 167 % vs. control |
| Cc1c(C)c(NCC(=O)N(C)C2CCN(CC3CC3)CC2)c(C)c(C)c1N [Compound 113] | 74 | 20.0 | – | – |
| Cc1cc(C)c(NCC(=O)N(C)C2CCN(C(=O)c3ccccc3)CC2)c(C)c1N [Compound 128, 2-(3-Amino-2,4,6-trimethylanilino)-N-(1-benzoyl-4-piperidinyl)-N-methylacetamide] | – | 20.3 | 81 | Amount of induced Calbindine D28Kd (% vs. control) (Compound: 1 μM) (calbindin D28Kd): 171 % vs. control |
| Cc1c(C)c(NCC(=O)N(C)C2CCN(CC(O)c3ccccc3)CC2)c(C)c(C)c1N (centres unmarked) [Compound 112, 2-(4-Amino-2,3,5,6-tetramethylanilino)-N-[1-(2-hydroxy-2-phenylethyl)-4-piperidinyl]-N-methylacetamide] | – | 20.7 | 76 | – |
| Cc1cc(OC(C)(C)C(=O)N(C)C2CCN(CC(=O)Nc3ccccc3)CC2)c(C)c(C)c1N [Compound 42, 2-(4-Amino-2,3,5-trimethylphenoxy)-2-methyl-N-[1-(2-anilino-2-oxyethyl)-4-piperidinyl]-N-methylpropamide] | 131 | 31.0 | – | Cerebral edema suppressing rate (%) [1, 3]: 24.5% |
| Cc1c(C)c(NCC(=O)N(C)C2CCN(CC(C(=O)O)c3ccccc3)CC2)c(C)c(C)c1N (centres unmarked) [Compound 109, 3{4-[[2-(4-Amino-2,3,5,6-tetramethylanilino)-acetyl](methyl)amino]-1-piperidino}-2-phenylpropionic acid] | 76 | 24.7 | – | – |
| CCCCN1CCC(N(C)C(=O)CNc2c(C)cc(C)c(N)c2C)CC1 [Compound 132, 2-(3-Amino-2,4,6-trimethylanilino)-N-(1-butyl-4-piperidinyl)-N-methylacetamide] | – | – | 60 | Cerebral edema suppressing rate (%) [1, 3]: 30.4% |
| Cc1cc(OCC(=O)NC2CCN(CC(=O)NC3(c4ccccc4)CC3)CC2)c(C)c(C)c1N [Compound 104, 2-(4-Amino-2,3,5-trimethylphenoxy)-N-[1-(2-(1-phenylcyclopropyl)amino-2-oxyethyl)-4-piperidinyl]acetamide] | 117 | 18.9 | – | – |
| Cc1cc(OC(C)C(=O)N(C)C2CCN(CC(=O)Nc3ccccc3C(C)(C)C)CC2)c(C)c(C)c1N (centres unmarked) [Compound 60, 2-(4-Amino-2,3,5-trimethylphenoxy)-N-[1-(2-(2-tert-butylanilino)-2-oxyethyl)-4-piperidinyl]-N-methylpropamide] | 60 | – | – | – |
| Cc1c(C)c(NCC(=O)N(C)C2CCN(Cc3ccncc3)CC2)c(C)c(C)c1N [Compound 114, 2-(4-Amino-2,3,5,6-tetramethylanilino)-N-methyl-N-[1-(4-pyridylmethyl)-4-piperidinyl]acetamide] | – | – | 50 | – |
| Cc1cc(OCC(=O)N(C)C2CCN(CC(=O)N[C@@H]3C[C@H]3c3ccccc3)CC2)c(C)c(C)c1N (relative stereo) [Compound 66] | 60 | – | – | – |
| Cc1cc(C)c(NCC(=O)N(C)C2CCN(CC(=O)c3ccccc3)CC2)c(C)c1N [Compound 127, 2-(3-Amino-2,4,6-trimethylanilino)-N-methyl-N-[1-(2-phenyl-2-oxyethyl)-4-piperidinyl]acetamide] | 72 | – | – | – |
| Cc1cc(OC(C)(C)C(=O)NC2CCN(CC3(c4ccccc4)CC3)CC2)c(C)c(C)c1N [Compound 81, 2-(4-Amino-2,3,5-trimethylphenoxy)-2-methyl-N-[1-(1-phenyl-1-cyclopropane)methyl-4-piperidinyl]propamide] | 97 | – | – | – |
| Cc1cc(C)c(NCC(=O)N(C)C2CCN(CC3CC3)CC2)c(C)c1N [Compound 129, 2-(3-Amino-2,4,6-trimethylanilino)-N-[1-(cyclopropylmethyl)-4-piperidinyl]-N-methylacetamide] | – | – | 64 | – |
| Cc1cc(OCC(=O)N(C)C2CCN(CC(=O)Nc3ccccc3)CC2)c(C)c(C)c1N [Compound 29, 2-(4-Amino-2,3,5-trimethylphenoxy)-N-[1-(2-anilino-2-oxyethyl)-4-piperidinyl]-N-methylacetamide] | – | 30.9 | – | Amount of induced Calbindine D28Kd (% vs. control) (Compound: 1 μM) (calbindin D28Kd): 122 % vs. control |
| Cc1cc(C)c(NCC(=O)N(C)C2CCN(C(=O)c3cccc(C(F)(F)F)c3)CC2)c(C)c1N [Compound 134, 2-(3-Amino-2,4,6-trimethylanilino)-N-methyl-N-[1-(3-trifluoromethylbenzoyl)-4-piperidinyl]acetamide] | – | 35.0 | 79 | Cerebral edema suppressing rate (%) [1, 3]: 27.9% |
| Cc1cc(OCC(=O)NC2CCN(CC3(c4ccccc4)CC3)CC2)c(C)c(C)c1N [Compound 96, 2-(4-Amino-2,3,5-trimethylphenoxy)-N-[1-(1-phenyl-1-cyclopropane)methyl-4-piperidinyl]acetamide] | 91 | – | – | – |
| CN(C(=O)CNc1c(Cl)cc(N)cc1Cl)C1CCN(CC(=O)Nc2ccccc2)CC1 [Compound 139, 2-(4-Amino-2,6-dichloroanilino)-N-[1-(2-anilino-2-oxyethyl)-4-piperidinyl]-N-methylacetamide] | 53 | – | – | – |
| Cc1cc(OC(C)C(=O)NC2CCN(CC(=O)NC3(c4ccccc4)CC3)CC2)c(C)c(C)c1N (centres unmarked) [Compound 102, 2-(4-Amino-2,3,5-trimethylphenoxy)-N-[1-(2-(1-phenylcyclopropyl)amino-2-oxyethyl)-4-piperidinyl]propamide] | 89 | – | – | – |
| CCN(C(=O)COc1c(C)c(C)c(N)c(C)c1Cl)C1CCN(CC(=O)Nc2cc(C)c(O)cc2C)CC1 [Compound 93, 2-(4-Amino-2-chloro-3,5,6-trimethylphenoxy)-N-[1-(2-(2,5-dimethyl-4-hydroxy)anilino-2-oxyethyl)-4-piperidinyl]-N-ethylacetamide] | 171 | – | – | – |
| Cc1c(C)c(NC(C)C(=O)N(C)C2CCN(CC3CC3)CC2)c(C)c(C)c1N (centres unmarked) [Compound 121, 2-(4-Amino-2,3,5,6-tetramethylanilino)-N-[1-(cyclopropylmethyl)-4-piperidinyl]-N-methylpropamide] | 82 | – | – | – |
| Cc1cc(C)c(NCC(=O)N(C)C2CCN(C/C=C/c3ccccc3)CC2)c(C)c1N [Compound 125, 2-(3-Amino-2,4,6-trimethylanilino)-N-methyl-N-[1-(3-phenyl-2-(E)-propenyl)-4-piperidinyl]acetamide] | – | – | 52 | – |
